Data reported in patent US10857138B2, “Pharmaceutical compositions comprising antibacterial agents” (WOCKHARDT LIMITED, priority 2014, dated 2020).

Key:
[1] = test system: Klebsiella pneumoniae B 88 strain producing NDM-1, SHV, TEM and CTXM beta-lactamase enzymes; test: Time kill study against K. pneumoniae B 88; assay type: cell-based; set-up: Effect on bacterial count when used alone: dose or concentration left out as unconfirmed; settings: for Bacterial count (Log10CFU/ml) 2 hours / Bacterial count (Log10CFU/ml) 4 hours / Bacterial count (Log10CFU/ml) 6 hours / Bacterial count (Log10CFU/ml) 8 hours: each agent at 4 mcg/ml, alone or in combination; for Effect on bacterial count when used alone: used alone at 4 mcg/ml, throughout the duration of the study
Description: (§1) In a typical time kill study, the freshly grown cultures were diluted to the required cell density (initial starting inoculum) in Cation adjusted Muller Hinton broth medium (BD, USA). The antibacterial agents (either alone or in combination) at the required concentrations were added into the culture-containing medium. The samples were incubated under shaking condition (120 rpm) at 37° C. Enumeration of viable bacterial count was done every 2 hour by diluting in normal saline and plating on to the Tryptic Soya Agar plates (BD, USA). The plates were incubated for 24 hours to arrive at the viable bacterial count. […] In general, the decrease of 1 Log CFU/ml, corresponds to 90% killing of bacteria. Similarly, 2 Log CFU/ml reductions indicates to 99% killing of bacteria and 3 Log CFU/ml reductions is equal to 99.9% killing of bacteria.
(§2) The assay without any antibacterial agent was taken as control.

[2] = test system: Klebsiella pneumoniae NCTC 13443 strain producing NDM-1, SHV and TEM beta-lactamase enzymes; test: Time kill study against K. pneumoniae NCTC 13443; assay type: cell-based; settings: for Bacterial count (Log10CFU/ml) 2 hours / Bacterial count (Log10CFU/ml) 4 hours / Bacterial count (Log10CFU/ml) 6 hours / Bacterial count (Log10CFU/ml) 8 hours: each agent at 4 mcg/ml, alone or in combination; for Effect on bacterial count when used alone: used alone at 4 μg/ml, throughout the duration of the study
Description: as §1, §2

Row | Compound | Bacterial count (Log10CFU/ml) 2 hours [1] [Log10CFU/ml] | Bacterial count (Log10CFU/ml) 4 hours [1] [Log10CFU/ml] | Bacterial count (Log10CFU/ml) 6 hours [1] [Log10CFU/ml] | Bacterial count (Log10CFU/ml) 8 hours [1] [Log10CFU/ml] | Effect on bacterial count when used alone [1] | Bacterial count (Log10CFU/ml) 2 hours [2] [Log10CFU/ml] | Bacterial count (Log10CFU/ml) 4 hours [2] [Log10CFU/ml] | Bacterial count (Log10CFU/ml) 6 hours [2] [Log10CFU/ml] | Bacterial count (Log10CFU/ml) 8 hours [2] [Log10CFU/ml] | Effect on bacterial count when used alone [2]
1 | C[C@H]1[C@H](NC(=O)/C(=N\OC(C)(C)C(=O)O)c2csc(N)n2)C(=O)N1S(=O)(=O)O [Aztreonam, reference compound] | 8.16 | 8.7 | 8.88 | 9.04 | not effective to decrease the bacterial count | 8.38 | 8.65 | 9.02 | 9.55 | not effective to decrease the bacterial count
2 | N#C[C@@H]1CC[C@@H]2CN1C(=O)N2OS(=O)(=O)[O-].[Na+] [Compound A, Sodium salt of trans-7-oxo-6-sulphooxy-1,6-diazabicyclo[3.2.1]-octane-2-carbonitrile] | 8 | 8.2 | 8.5 | 8.8 | not effective to decrease the bacterial count | 8.3 | 8.5 | 8.8 | 9 | not effective to decrease the bacterial count
3 | NC(=O)c1nnc([C@@H]2CC[C@@H]3CN2C(=O)N3OS(=O)(=O)O)o1 [Compound B] | 7.98 | 8.2 | 8.50 | 8.9 | not effective to decrease the bacterial count | 8.3 | 8.5 | 8.8 | 8.9 | not effective to decrease the bacterial count
4 | O=C1N2C[C@@H](CC[C@H]2c2nnc(C3CCNCC3)o2)N1OS(=O)(=O)O [Compound C] | 8.1 | 8.15 | 8.65 | 8.9 | not effective to decrease the bacterial count | 8.2 | 8.9 | 9 | 9.5 | not effective to decrease the bacterial count
5 | O=C1N2C[C@@H](CC[C@H]2c2nnc(CC3CNC3)o2)N1OS(=O)(=O)O [Compound D] | 8.05 | 8.3 | 8.7 | 8.8 | not effective to decrease the bacterial count | 8.3 | 8.55 | 8.95 | 9.2 | not effective to decrease the bacterial count
6 | O=C(NNC(=O)[C@@H]1CC[C@@H]2CN1C(=O)N2OS(=O)(=O)O)[C@@H]1CCCNC1 [Compound E, (2S,5R)-7-Oxo-6-sulphooxy-2-[N′—((R)-piperidine-3-carbonyl)-hydrazinocarbonyl]-1,6-diaza-bicyclo[3.2.1]octane] | 7.9 | 8.3 | 8.8 | 8.9 | not effective to decrease the bacterial count | 8.35 | 8.6 | 8.8 | 8.9 | not effective to decrease the bacterial count
7 | O=C(NOC[C@@H]1CCCN1)[C@@H]1CC[C@@H]2CN1C(=O)N2OS(=O)(=O)O [Compound F, (2S,5R)-7-Oxo-N-[(2S)-pyrrolidin-2-ylmethoxy]-6-(sulfooxy)-1,6-diaza bicyclo[3.2.1]octane-2-carboxamide] | 8 | 8.2 | 8.35 | 8.7 | not effective to decrease the bacterial count | 8.4 | 8.7 | 8.9 | 9.1 | not effective to decrease the bacterial count
8 | O=C(NNC(=O)[C@@H]1CC[C@@H]2CN1C(=O)N2OS(=O)(=O)O)[C@@H]1CCNC1 [Compound G, (2S,5R)-7-Oxo-6-sulphooxy-2-[N′—((R)-pyrrolidine-3-carbonyl)-hydrazinocarbonyl]-1,6-diaza-bicyclo[3.2.1]octane] | 7.95 | 8.05 | 8.7 | 8.98 | not effective to decrease the bacterial count | 8.36 | 8.78 | 8.9 | 9.2 | not effective to decrease the bacterial count
9 | O=C(NOC[C@@H]1CCCCN1)[C@@H]1CC[C@@H]2CN1C(=O)N2OS(=O)(=O)O [Compound H, (2S,5R)-7-Oxo-N-[(2S)-piperidine-2-ylmethyloxy]-6-(sulfooxy)-1,6-diazabicyclo[3.2.1]octane-2-carboxamide] | 8.15 | 8.3 | 8.65 | 8.98 | not effective to decrease the bacterial count | 8.35 | 8.48 | 8.9 | 9.1 | not effective to decrease the bacterial count
10 | C[C@H](N)c1nnc([C@@H]2CC[C@@H]3CN2C(=O)N3OS(=O)(=O)O)o1 [Compound I, trans-sulphuric acid mono-[2-(5-((S)-1-amino-ethyl)-[1,3,4]-oxadiazol-2-yl)-7-oxo-1,6-diazabicyclo[3.2.1]-octan-6-yl] ester] | 8.36 | 8.79 | 8.9 | 9.1 | not effective to decrease the bacterial count | 8.36 | 8.79 | 8.9 | 9.1 | not effective to decrease the bacterial count
11 | O=C1N2C[C@@H](CC[C@H]2c2nnc([C@@H]3CCCN3)o2)N1OS(=O)(=O)O [Compound J, trans-sulphuric acid mono-[2-(5-((S)-pyrrolidin-2-yl)-[1,3,4]-oxadiazol-2-yl)-7-oxo-1,6-diazabicyclo[3.2.1]-octan-6-yl] ester] | 8.35 | 8.5 | 8.8 | 9.2 | not effective to decrease the bacterial count | 8.35 | 8.5 | 8.8 | 9.2 | not effective to decrease the bacterial count
12 | C[C@@H](O)[C@H]1C(=O)N2C(C(=O)O)=C(SCCN=CN)C[C@H]12 [Imipenem, reference compound] | 8.28 | 8.7 | 8.9 | 9.2 |  | 8.35 | 8.78 | 8.88 | 9.09 | 
